Data taken from ChEMBL document CHEMBL1944605, “Amides of xanthurenic acid as zinc-dependent inhibitors of Lp-PLA(2)” (Bioorg Med Chem Lett, 2012).

Key:
[1] = biological target: T1, Platelet-activating factor acetylhydrolase (Homo sapiens, UniProt Q13093); test: Inhibition of human plasma lipoprotein-associated phospholipase A2 using 2-thio-PAF as substrate preincubated for 20 mins measured 1 hr post substrate addition by spectrophotometric analysis
T1 sequence (Q13093 whole entry): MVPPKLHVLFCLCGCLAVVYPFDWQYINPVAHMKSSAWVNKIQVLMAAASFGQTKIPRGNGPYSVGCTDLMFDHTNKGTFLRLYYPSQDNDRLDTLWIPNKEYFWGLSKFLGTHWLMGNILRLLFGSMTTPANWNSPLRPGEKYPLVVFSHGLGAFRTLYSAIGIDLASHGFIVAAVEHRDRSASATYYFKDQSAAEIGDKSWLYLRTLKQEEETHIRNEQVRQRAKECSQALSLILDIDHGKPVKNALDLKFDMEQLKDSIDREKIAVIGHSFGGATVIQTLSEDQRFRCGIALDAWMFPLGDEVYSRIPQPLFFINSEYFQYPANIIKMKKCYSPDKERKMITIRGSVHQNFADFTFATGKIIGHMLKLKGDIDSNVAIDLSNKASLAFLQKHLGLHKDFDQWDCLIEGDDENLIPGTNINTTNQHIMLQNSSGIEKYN

[2] = biological target: T1, Platelet-activating factor acetylhydrolase; test: Inhibition of human plasma lipoprotein-associated phospholipase A2 using 2-thio-PAF as substrate preincubated for 20 mins measured 1 hr post substrate addition by spectrophotometric analysis

Row | SMILES | IC50 [1] [µM] | IC50 [2] [µM]
1 | Oc1cccc2cccnc12 [OXYQUINOLINE] | > 100 | > 100
2 | O=C(O)c1cc(O)c2cccc(O)c2n1 [XANTHURENATE] | > 100 | > 100
3 | O=C(Nc1ccccc1)c1ccc2cccc(O)c2n1 | > 100 | > 100
